The target of assay [1] is T1, human NPR1 (Homo sapiens, UniProt P16066).
T1 construct: host or cells: CHO-K1
T1 sequence (P16066 33-1061): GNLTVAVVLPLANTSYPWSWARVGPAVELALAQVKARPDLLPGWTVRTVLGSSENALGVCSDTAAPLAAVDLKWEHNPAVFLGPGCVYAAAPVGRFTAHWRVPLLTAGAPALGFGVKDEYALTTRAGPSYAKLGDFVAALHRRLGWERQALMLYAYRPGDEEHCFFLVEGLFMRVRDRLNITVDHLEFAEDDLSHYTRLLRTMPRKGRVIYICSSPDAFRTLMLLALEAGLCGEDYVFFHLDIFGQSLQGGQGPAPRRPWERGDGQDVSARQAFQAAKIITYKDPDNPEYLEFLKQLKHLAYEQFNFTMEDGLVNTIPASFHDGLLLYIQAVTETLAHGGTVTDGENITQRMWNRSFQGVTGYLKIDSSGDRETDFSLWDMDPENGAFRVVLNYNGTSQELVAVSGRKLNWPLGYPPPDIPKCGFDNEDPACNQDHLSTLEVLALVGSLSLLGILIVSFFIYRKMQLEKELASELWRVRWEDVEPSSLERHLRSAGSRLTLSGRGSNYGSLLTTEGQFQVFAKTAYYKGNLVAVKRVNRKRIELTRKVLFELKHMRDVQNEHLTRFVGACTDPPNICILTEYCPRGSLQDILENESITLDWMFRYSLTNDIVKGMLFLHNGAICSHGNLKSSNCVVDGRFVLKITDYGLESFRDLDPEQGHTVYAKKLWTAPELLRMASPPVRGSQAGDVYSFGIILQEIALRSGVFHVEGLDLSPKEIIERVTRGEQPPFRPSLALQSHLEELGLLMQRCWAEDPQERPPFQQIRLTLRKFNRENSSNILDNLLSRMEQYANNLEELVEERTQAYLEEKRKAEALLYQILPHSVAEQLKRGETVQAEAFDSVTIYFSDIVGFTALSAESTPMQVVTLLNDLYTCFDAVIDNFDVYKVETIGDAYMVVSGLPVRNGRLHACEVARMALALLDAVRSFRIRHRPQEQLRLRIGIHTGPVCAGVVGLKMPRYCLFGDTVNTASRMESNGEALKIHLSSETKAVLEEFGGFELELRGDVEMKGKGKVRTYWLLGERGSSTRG
Description: Cellular cGMP production assay, human NPR1 expressing CHO-K1 cells (CisBio HTRF). The format is cell-based. As to conditions: for AC50: cGMP production, 30 min at 37° C., 12-point dose-response from 30 μM; for Human NPR1 Amax (% of ANP): maximum cGMP production as percentage of the maximum cGMP produced with ANP. A digest of the protocol:
(§1)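 CHO-K1 cells expressing human or cynomolgus NPR1 treated with compound (12-point, 3-fold dilutions from 30 μM top) in PBS+0.1% BSA with 1 mM IBMX, 30 min at 37° C. After lysis, cGMP quantified by HTRF competition (cGMP-d2/anti-cGMP-cryptate, 1 h RT, 665 nm emission) against a calibrator standard curve.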
A general note: Time-resolved FRET reads energy transfer from a long-lived donor to a nearby acceptor.

Assay [2] has as its target monkey NPR1 (Macaca fascicularis, UniProt A0A7N9DBT9). Briefly: Cellular cGMP production assay, monkey NPR1 expressing CHO-K1 cells (CisBio HTRF). The format is cell-based. As to conditions: for Monkey NPR1 Amax (% of ANP): maximum cGMP production as percentage of the maximum cGMP produced with ANP. The essentials:
as §1

[3] abbreviates: cGMP production, monkey NPR1 CHO-K1 cells, 30 min at 37° C., 12-point dose-response from 30 μM, read-out: Monkey NPR1 AC50.

Where two headings read alike, the source gives them in different places.

Sequence of monkey NPR1 (A0A7N9DBT9 entry or part of it): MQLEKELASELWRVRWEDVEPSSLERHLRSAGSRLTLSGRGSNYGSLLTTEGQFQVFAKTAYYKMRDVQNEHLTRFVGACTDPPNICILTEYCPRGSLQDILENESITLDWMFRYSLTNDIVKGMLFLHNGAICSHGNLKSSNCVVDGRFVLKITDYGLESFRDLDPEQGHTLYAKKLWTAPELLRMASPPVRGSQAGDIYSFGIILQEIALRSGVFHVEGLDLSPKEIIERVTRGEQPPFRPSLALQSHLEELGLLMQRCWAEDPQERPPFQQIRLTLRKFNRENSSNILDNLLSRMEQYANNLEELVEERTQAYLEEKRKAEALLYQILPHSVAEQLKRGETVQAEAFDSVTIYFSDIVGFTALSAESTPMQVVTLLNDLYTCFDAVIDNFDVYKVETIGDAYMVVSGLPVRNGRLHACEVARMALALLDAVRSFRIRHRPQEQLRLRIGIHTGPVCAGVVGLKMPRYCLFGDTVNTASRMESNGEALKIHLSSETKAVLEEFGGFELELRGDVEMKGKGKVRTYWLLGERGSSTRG

With `CC[C@H]([C@H]1CC[C@H](C(=O)O)CC1)N(C)c1nc2c(c(N[C@@H](CN3C4CCCC3CC4)c3cnc(C)s3)n1)C[C@H](c1cccc(F)c1)CC2` [Compound 81, (1R,4r)-4-((1R)-1-(((6R)-4-(((1S)-2-(8-azabicyclo[3.2.1]octan-8-yl)-1-(2-methylthiazol-5-yl)ethyl)amino)-6-(3-fluorophenyl)-5,6,7,8-tetrahydroquinazolin-2-yl)(methyl)amino)propyl)cyclohexane-1-carboxylic acid], in assay [1], the half-maximal activity concentration (AC50) is 271 nM and the “Human NPR1 Amax (% of ANP)” value is recorded as 101.636 % of ANP. The activity in assay [2] was half-maximal at 175 nM (AC50). The “Monkey NPR1 Amax (% of ANP)” value in assay [2] (monkey NPR1 CHO-K1 cells) is 100.863 % of ANP.

Regarding `CC[C@@H](N(C)c1nc2c(c(N[C@@H](CN3C4CCCC3CCC4)c3cnn(C)c3)n1)C[C@](C)(c1ccccc1)CC2)C12CC(C(=O)O)(C1)C2` [Compound 27, 3-((R)-1-(((R)-4-(((R)-2-((1S,5S)-9-azabicyclo[3.3.1]nonan-9-yl)-1-(1-methyl-1H-pyrazol-4-yl)ethyl)amino)-6-methyl-6-phenyl-5,6,7,8-tetrahydroquinazolin-2-yl)(methyl)amino)propyl)bicyclo[1.1.1]pentane-1-carboxylic acid], in assay [1], the activity was half-maximal at 137 nM (AC50) and the “Human NPR1 Amax (% of ANP)” value was 92.458 % of ANP. Moreover, in assay [2], half-maximal activity (AC50) was put at 137 nM. The “Monkey NPR1 Amax (% of ANP)” value in assay [2] (monkey NPR1 CHO-K1 cells) is given as 102.654 % of ANP.

With `CC[C@@H](Nc1nc2c(c(N[C@@H](CN3C4CCCC3CCC4)c3cnn(CC)c3)n1)C[C@H](c1ccccc1)CC2)[C@H]1CC[C@H](C(=O)O)CC1` [Compound 65, (1R,4r)-4-((R)-1-(((R)-4-(((R)-2-((1S,5S)-9-azabicyclo[3.3.1]nonan-9-yl)-1-(1-ethyl-1H-pyrazol-4-yl)ethyl)amino)-6-phenyl-5,6,7,8-tetrahydroquinazolin-2-yl)amino)propyl)cyclohexane-1-carboxylic acid], in assay [1], the half-maximal activity concentration (AC50) was found to be 217 nM and the “Human NPR1 Amax (% of ANP)” value is given as 106.664 % of ANP. This compound also registered a half-maximal activity concentration (AC50) in assay [2] of 128 nM. Besides, the “Monkey NPR1 Amax (% of ANP)” value in assay [2] (monkey NPR1 CHO-K1 cells) was 99.329 % of ANP.

`CC[C@H]([C@H]1CC[C@H](C(=O)O)CC1)N(C)c1nc2c(c(N[C@@H](CN3C4CCCC3CCC4)c3cnn(CC)c3)n1)C[C@H](c1cccc(F)c1)CC2` [Compound 18, (1R,4r)-4-((R)-1-(((R)-4-(((R)-2-((1S,5S)-9-azabicyclo[3.3.1]nonan-9-yl)-1-(1-ethyl-1H-pyrazol-4-yl)ethyl)amino)-6-(3-fluorophenyl)-5,6,7,8-tetrahydroquinazolin-2-yl)(methyl)amino)propyl)cyclohexane-1-carboxylic acid]: in assay [1], the activity was half-maximal at 107 nM (AC50) and the “Human NPR1 Amax (% of ANP)” value is recorded as 97.609 % of ANP. In assay [2], this compound returned an AC50 of 71 nM. Besides, in assay [2] (monkey NPR1 CHO-K1 cells), the “Monkey NPR1 Amax (% of ANP)” value is given as 100.607 % of ANP.

Take `CC[C@H]([C@H]1CC[C@H](C(=O)O)CC1)N(C)c1nc2c(c(N[C@@H](CN3CCC[C@H](C)C3)c3cnn(C)c3)n1)C[C@H](c1ccc(F)cc1)CC2` [Compound 14, (1R,4r)-4-((R)-1-(((R)-6-(4-fluorophenyl)-4-(((R)-1-(1-methyl-1H-pyrazol-4-yl)-2-((S)-3-methylpiperidin-1-yl)ethyl)amino)-5,6,7,8-tetrahydroquinazolin-2-yl)(methyl)amino)propyl)cyclohexane-1-carboxylic acid]: the AC50 in assay [1] is 97 nM; in assay [2] (setting [3]) it was 62 nM. In assay [1], the “Human NPR1 Amax (% of ANP)” value was 94.761 % of ANP. For the same compound, the “Monkey NPR1 Amax (% of ANP)” value in assay [2] (monkey NPR1 CHO-K1 cells) is 88.286 % of ANP.

Regarding `CC[C@@H](Nc1nc2c(c(N[C@@H](CN3C4CCCC3CC4)c3cnn(C)c3)n1)C[C@H](c1ccccc1)CC2)[C@H]1CC[C@H](C(=O)O)CC1` [Compound 60, (1R,4r)-4-((1R)-1-(((6R)-4-(((1R)-2-(8-azabicyclo[3.2.1]octan-8-yl)-1-(1-methyl-1H-pyrazol-4-yl)ethyl)amino)-6-phenyl-5,6,7,8-tetrahydroquinazolin-2-yl)amino)propyl)cyclohexane-1-carboxylic acid], in assay [1], the AC50 was determined as 205 nM and the “Human NPR1 Amax (% of ANP)” value is listed as 93.233 % of ANP. The compound further displayed an AC50 in assay [2] of 99 nM. Also, the “Monkey NPR1 Amax (% of ANP)” value in assay [2] (monkey NPR1 CHO-K1 cells) was 106.189 % of ANP.

`CC[C@@H](Nc1nc2c(c(N[C@@H](CN3CCCC3)c3ccccc3)n1)C[C@H](c1ccccc1)CC2)[C@H]1CC[C@H](C(=O)O)CC1` [Compound 85, (1R,4r)-4-((R)-1-(((R)-6-phenyl-4-(((R)-1-phenyl-2-(pyrrolidin-1-yl)ethyl)amino)-5,6,7,8-tetrahydroquinazolin-2-yl)amino)propyl)cyclohexane-1-carboxylic acid]: the AC50 in assay [1] stood at 285 nM; in assay [2] (setting [3]), 238 nM. Besides, the “Human NPR1 Amax (% of ANP)” value in assay [1] is reported as 102.461 % of ANP. The “Monkey NPR1 Amax (% of ANP)” value in assay [2] (monkey NPR1 CHO-K1 cells) is 95.638 % of ANP.

Regarding `CC[C@@H](N(C)c1nc2c(c(N[C@@H](CN3C4CCCC3CCC4)c3cnn(C)c3)n1)C[C@H](c1cccc(F)c1)CC2)C12CC(C(=O)O)(C1)C2` [Compound 6, 3-((R)-1-(((R)-4-(((R)-2-((1S,5S)-9-azabicyclo[3.3.1]nonan-9-yl)-1-(1-methyl-1H-pyrazol-4-yl)ethyl)amino)-6-(3-fluorophenyl)-5,6,7,8-tetrahydroquinazolin-2-yl)(methyl)amino)propyl)bicyclo[1.1.1]pentane-1-carboxylic acid], in assay [1], the activity was half-maximal at 77 nM (AC50) and the “Human NPR1 Amax (% of ANP)” value is on record as 98.462 % of ANP. The AC50 in assay [2] is 58 nM. Also, in assay [2] (monkey NPR1 CHO-K1 cells), the “Monkey NPR1 Amax (% of ANP)” value is reported as 98.535 % of ANP.

As for `CC[C@H](N(C)c1nc2c(c(N[C@@H](CN3CCC[C@H](CF)C3)c3cnn(C)c3)n1)C[C@](C)(c1ccccc1)CC2)C12CC(C(=O)O)(C1)C2` [Compound 43, 3-((S)-1-(((R)-4-(((R)-2-((S)-3-(fluoromethyl)piperidin-1-yl)-1-(1-methyl-1H-pyrazol-4-yl)ethyl)amino)-6-methyl-6-phenyl-5,6,7,8-tetrahydroquinazolin-2-yl)(methyl)amino)propyl)bicyclo[1.1.1]pentane-1-carboxylic acid], in assay [1], the AC50 turned out to be 170 nM and the “Human NPR1 Amax (% of ANP)” value was 101.178 % of ANP. For the same compound, the half-maximal activity concentration (AC50) in assay [2] (setting [3]) was 158 nM. For the same compound, the “Monkey NPR1 Amax (% of ANP)” value in assay [2] (monkey NPR1 CHO-K1 cells) was 104.036 % of ANP.

Consider `CC[C@H]([C@H]1CC[C@H](C(=O)O)CC1)N(C)c1nc2c(c(N[C@@H](CN3CCCC[C@@H]3CO)c3cnn(CC)c3)n1)C[C@H](c1cccc(F)c1)CC2` [Compound 104, (1R,4r)-4-((R)-1-(((R)-4-(((R)-1-(1-ethyl-1H-pyrazol-4-yl)-2-((R)-2-(hydroxymethyl)piperidin-1-yl)ethyl)amino)-6-(3-fluorophenyl)-5,6,7,8-tetrahydroquinazolin-2-yl)(methyl)amino)propyl)cyclohexane-1-carboxylic acid], for which, in assay [1], half-maximal activity (AC50) was put at 396 nM and the “Human NPR1 Amax (% of ANP)” value is recorded as 106.357 % of ANP. Besides, in assay [2] (setting [3]), the concentration at half-maximal activity (AC50) was determined as 290 nM. The “Monkey NPR1 Amax (% of ANP)” value in assay [2] (monkey NPR1 CHO-K1 cells) was 109.908 % of ANP.

For orientation: AC50 means the midpoint of the concentration-response curve, whichever way the signal moves.

These data come from patent US12129246B1, “Hydroquinazoline derivatives for the treatment of a disease or disorder” (Novartis AG, priority 2023, dated 2024).
